# Where “and” joins values, the source holds several entries; their conditions need not be identical. Equal values may be shown once. Read-outs that look alike come from different tables or passages of the source.
# Legend:
# [1] = system: asexual-blood-stage P. falciparum; details: cited from earlier work
# [2] = target: P. falciparum translation (P. falciparum lysate); experiment: P. falciparum in vitro translation (PfIVT) assay, lysate-based, luciferase reporter; assay type: biochemical, Plasmodium falciparum; details: for selectivity index/window, PfIVT compared to HsIVT: HsIVT IC50 over PfIVT IC50; for PfIVT inhibition at 30 μM (%): single-point screen
# Source text: (§1) Our P. falciparum in vitro translation (PfIVT) assay is built upon previously established assays ([14], [17]) and is summarized in Fig. 1A. In this assay, successful reconstitution of Plasmodium protein translation is reported via synthesis of a luciferase reporter. For PfIVT, two independent untranslated regions (UTRs), previously shown to promote strong levels of translation ([17]), were introduced upstream and downstream of the luciferase. The 5′ UTR from P. falciparum histidine-rich protein 3 (PfHrp3) ([18]) was introduced upstream of the reporter gene, and the 3′ UTR from P. falciparum histidine-rich protein 2 (PfHrp2) gene ([19]) was introduced downstream. For the reporter construct to support our complementary human IVT assay (HsIVT), the 5′ UTR was replaced with an internal ribosome entry site (IRES) from encephalomyocarditis virus (EMCV) ([20]) and the 3′ UTR was replaced with a poly(A) tail ([21]). […] Finally, a 30-bp poly(A) tail, present within the vector and downstream of the luciferase gene, was inserted to enhance mRNA stability ([21]).
# (§2) Translationally active P. falciparum or human embryonic kidney (HEK) 293F lysates were supplemented with accessory, helper, amino acid, and energy regeneration solutions (see Materials and Methods for details). In vitro translation reactions were initiated by the addition of purified mRNA to each reaction well. Using this basic assay format, a number of parameters were assessed and optimized, namely, assay temperature, time, mRNA concentration, and reaction volume (summarized in Fig. S2 in the supplemental material). In addition, we compared the luminescence signal of the CBG firefly luciferase with CBG99, derived from the click beetle […] ([18]).
# 3D7 parasites were synchronized following two rounds of treatment with D-sorbitol (5%), as previously described ([40]). The hematocrit was reduced from 5% (for standard culture) to 1.5 to 2% and cultures were transferred into HYPERflasks (Corning). Fresh medium was added once or twice daily. […] Harvested red blood cells (infected) were lysed by incubation in 0.1% (wt/vol) saponin on ice for 10 min with gentle agitation. Free parasites were harvested by centrifugation (2,800 × g, 10 min, 4°C) and washed 3 times in wash buffer (WB; 100 mM potassium acetate, 2.5 mM magnesium acetate, 45 mM HEPES [pH 7.4], 250 mM sucrose, 2 mM dithiothreitol, and 15 μM leupeptin) to remove lysed red blood cell debris. The resulting pellet was resuspended in 1 volume of WB supplemented with cOmplete EDTA-free protease inhibitor cocktail (Roche; 1 tablet/20 mL) and human RNase A inhibitor (Sigma; 5 U/mL). Parasite lysis was achieved by nitrogen cavitation using a prechilled 45-mL Parr cell disruption vessel (1,500 lb/in^2, 60 min, 4°C). To clarify the lysate, it was centrifuged (10,000 × g, 15 min, 4°C), and the supernatant was collected, transferred into fresh tubes, and centrifuged (30,000 × g, 15 min, 4°C). As a quality assurance step for each lysate, the RNA content of the resulting supernatant was determined using a NanoDrop spectrophotometer (Shimadzu). Supernatants with RNA levels of >250 ng/μL were aliquoted (100 μL), flash frozen in liquid nitrogen, and stored at −80°C.
# [3] = system: asexual-blood-stage (ABS) P. falciparum; experiment: SYBR green-based P. falciparum asexual growth inhibition assay; assay type: cell-based; details: Plasmodium falciparum
# Experimental: The Plasmodium falciparum reference strain 3D7 used throughout this study was cultured as previously described ([39]). Briefly, cultures incubated at 37°C in a humidified atmosphere of 1% O2 and 3% CO2 in balance with N2 were maintained in RPMI 1640 media supplemented with 5% A^+ human red blood cells (provided by the Scottish National Blood Transfusion Service), 25 mM HEPES, 2 mM L-glutamine, 0.5% AlbuMAX II (Gibco), 12 mM sodium bicarbonate, 0.2 mM hypoxanthine, and 20 mg/L gentamicin (pH 7.3).
# Our SYBR green asexual-growth assay was based on a previous report ([45]). In brief, 96-well black clear-bottom plates (Corning) were preprinted with a compound and normalized with DMSO to 0.5% of a total assay volume of 100 μL. Highly synchronized ring-stage parasites and blood were added to a 2% final parasitemia and 1% hematocrit. The compounds were incubated with parasites for 72 h prior to freezing at −20°C (to aid cell lysis). The plate was thawed on ice and lysis buffer (20 mM Tris pH 7.5, 5 mM EDTA, 0.008% [w/v] saponin, […]) containing SYBR green I (Thermo Fisher Scientific) at a final concentration of 0.02% (v/v) was added. The 96-well plate was equilibrated to room temperature for 1 h before fluorescence was determined on a TECAN Infinite Pro 200 microplate reader using green fluorescent protein (GFP) filters (excitation, 485 nm; emission, 535 nm). Data were fitted to a two-parameter equation using GraFit version 7.0 (Erithacus Software), and EC50 values were calculated. An excess of the standard inhibitor mefloquine (10 μM) was used to define 0% parasite growth.
# [4] = system: human translation (HEK 293F lysate); experiment: Human in vitro translation (HsIVT) assay, HEK 293F lysate, luciferase reporter; assay type: biochemical; details: for effect on translation in the HsIVT assay (Fig. S3A): 10 µM, three technical replicates
# Source text: as §1, §2
# FreeStyle human embryonic kidney (HEK) 293F cells (Thermo Fisher Scientific) were grown in 500-mL polycarbonate Erlenmeyer vented flasks (Corning) containing FreeStyle 293 expression medium (Life Technologies) upon reaching a density of approximately 2 × 10^6. Cells were then centrifuged at 1,000 × g for 10 min at 4°C, the medium was discarded, and the resulting pellet was washed once in buffer II containing 20 U of human placental RNase inhibitor (Sigma-Aldrich) and cOmplete EDTA-free inhibitor cocktail (Roche) before being centrifuged at 2,800 × g for 10 min. Clarified HEK cell lysate was obtained in the same way as described for P. falciparum lysate.
# PfIVT and HsIVT reactions (5 μL final volume) were performed in 384-well plates (Corning) containing 50% lysate from cells (either P. falciparum or HEK 293F), 10% amino acid solution (final concentration of 400 μM for each amino acid in 60 mM KOH; biotechrabbit), 10% energy recovery solution (final assay concentrations of 40 mM HEPES [pH 7.4], 1.5 mM ATP, 0.15 mM GTP, […] creatine phosphate, and 40 U/mL creatine phosphokinase), 10% helper solution (final assay concentrations of 200 μM cystine, 2% polyethylene glycol 3000 [PEG 3000], 1 mM spermidine, 0.5 mM folinic acid, and 15 μM leupeptin), 10% supplemental salt solution (22.5 mM HEPES [pH 7.4], 50 mM potassium acetate, 1 mM magnesium acetate, 1 mM DTT, 1 U/mL human placental RNase inhibitor, 0.1 mM leupeptin), and 10% cbg99 luciferase mRNA (3,000 ng/mL). A master mix solution containing all components was prepared on ice prior to assays, and 5 μL was dispensed into wells using an automated Integra VIAFLO 16-channel 12.5-μL pipette.
# [5] = target: CBG99 luciferase (Pyrophorus plagiophthalamus, UniProt Q7M4K1); experiment: Luciferase counterscreen (false-positive counterscreen); assay type: biochemical, click beetle; details: read-out: IC50 value (μM) Counterscreen, weighted mean ± SD of two technical replicates
# Experimental: Hits identified in our primary assay screen were assessed for their potential to interfere with the cbg99 luciferase reporter. For this counterscreen, the master mix containing all the components required for translation (as described above) was incubated for 210 min at 32°C, resulting in the in vitro translation of cbg99 luciferase. The produced luciferase was then incubated with test compounds for 5 min prior to the addition of luciferase reaction buffer. […] Hits from the primary screen were assessed as luciferase inhibitors in 8-point dose-dependent assays ranging from 30 μM to 13.7 nM (1:3 dilutions). Levels of luciferase inhibition were determined relative to the positive control.
# [6] = established inhibitors of protein translation, read-out: IC50 values, µM PfIVT (Table S1)
# [7] = established inhibitors of protein translation, read-out: EC50 values, µM PfABS (Table S1)
# [8] = P. falciparum 3D7 cell line, read-out: P. falciparum asexual-blood-stage EC50
# [9] = Pathogen Box hits, 8-point, weighted mean ± SD of two technical replicates, read-out: IC50 value (μM) PfIVT
# [10] = Pathogen Box hits, weighted mean ± SD of two technical replicates, read-out: IC50 value (μM) HsIVT
# [11] = P. falciparum Dd2 cell line, read-out: P. falciparum asexual-blood-stage EC50
# Chain of CBG99 luciferase (Q7M4K1 entry or part of it): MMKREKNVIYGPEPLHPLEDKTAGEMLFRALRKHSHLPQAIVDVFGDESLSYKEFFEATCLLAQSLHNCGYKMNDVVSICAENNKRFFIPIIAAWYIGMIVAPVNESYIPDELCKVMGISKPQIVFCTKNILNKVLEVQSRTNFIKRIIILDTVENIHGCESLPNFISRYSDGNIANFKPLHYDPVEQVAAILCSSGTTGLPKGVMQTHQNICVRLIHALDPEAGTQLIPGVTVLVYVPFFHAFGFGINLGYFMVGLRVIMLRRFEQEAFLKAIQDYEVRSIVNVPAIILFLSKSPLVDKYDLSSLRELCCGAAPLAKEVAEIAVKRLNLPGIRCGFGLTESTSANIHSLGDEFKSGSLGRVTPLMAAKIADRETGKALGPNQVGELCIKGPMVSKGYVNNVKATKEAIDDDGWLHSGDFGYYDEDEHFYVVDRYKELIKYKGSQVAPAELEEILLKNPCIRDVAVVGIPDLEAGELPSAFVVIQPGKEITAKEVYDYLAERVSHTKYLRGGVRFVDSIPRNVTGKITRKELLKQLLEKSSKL
SMILES,"IC50 [2, 6]","EC50 [1, 8]","selectivity index/window, PfIVT compared to HsIVT [2]","IC50 [2, 9]","IC50 ([2]; Table 3, read-out: PfIVT IC50)",PfIVT inhibition at 30 μM (%) ([2]; Pathogen Box),IC50 ([5]; Pathogen Box hits),"IC50 [4, 10]",further results
"C[C@@H]1C[C@H](C)C[C@H](C)[C@@H](O)CC(=O)O[C@H]([C@@H]2CCC[C@H]2C(=O)O)C/C=C/C=C(/C#N)[C@H](O)[C@@H](C)C1 [Borrelidin, borrelidin, reference compound]",1.2 µM,,,,,,,,"EC50 ([1]; ref 50 (supplement numbering), read-out: EC50 values, µM PfABS (Table S1)): 0.002 µM"
"C[C@H]1CCC[C@H](C[C@H]2Cc3cc(O)cc(O)c3C(=O)O2)O1 [Cladosporin, cladosporin, reference compound]",13 µM,,,,,,,,"EC50 [3, 7]: 0.07 µM; effect on translation in the HsIVT assay (Fig. S3A) [4]: little or no effect; activity in HsIVT assay at 100 μM ([4]; 100 μM): inactive"
"C[C@@H]1C[C@@H]([C@H](O)CC2CC(=O)NC(=O)C2)C(=O)[C@@H](C)C1 [Cycloheximide, cycloheximide, reference compound]",0.5 µM,,,,,,,,"EC50 ([3]; read-out: EC50 values, µM PfABS (Table S1)): 0.1 µM; inhibition of translation in HsIVT assay (validation) [4]: successfully inhibit translation; effect on translation in the HsIVT assay (Fig. S3A) [4]: ablated activity; IC50 ([4]; weighted mean ± SD from at least two biological replicates, read-out: IC50 in the HsIVT assay (Fig. S3B)): 1.2 ± 0.04 µM"
"O=C(NCCN1CCCC1)c1cc(-c2ccc(CN3CCOCC3)cc2Cl)nc2ccc(F)cc12 [DDD00197451, reference compound]",0.5 µM,,,,,,,,"inhibition of translation (PfIVT), internal control ([2]; internal control in all plates of the single-point screens): > 97%; EC50 [3, 7]: 0.003 µM"
"NCCCC[C@H](N)C(=O)NS(=O)(=O)OC[C@H]1O[C@@H](n2cnc3c(N)ncnc32)[C@H](O)[C@@H]1O [DDD01712277, reference compound]",0.2 µM,,,,,,,,"EC50 [3, 7]: 0.1 µM"
Cc1ccc2c(c1C)NC(=O)C21NN=C(c2ccccc2)S1 (stereo not drawn) [MMV019189],,0.75 µM,≥ 30 fold,0.03 ± 0.009 µM,0.03 ± 0.009 µM,84.4%,7 µM and > 30 µM,7.7 ± 0.3 µM,
O=C(NCCN1CCCC1)c1cc(NCCN2CCOCC2)nc2ccc(Cl)cc12 [MMV634140],,0.09 µM,,2.9 ± 0.09 µM,3 ± 0.09 µM,88.4%,> 30 µM,> 30 µM,"EC50 ([1]; asexual-blood-stage P. falciparum, Table 3 footnote: 3D7, read-out: ABS EC50 (text)): 0.041 µM"
O=C(NCCN1CCCC1)c1cc(NCCCCN2CCC(F)(F)CC2)nc2ccc(Cl)cc12 [MMV667494],,0.01 µM,≥ 30 fold,0.3 ± 0.09 µM,0.3 ± 0.09 µM,97.7%,> 30 µM,> 30 µM,
O=C(Nc1c(O)cccc1-c1nc2c(C(=O)O)cccc2o1)c1cc(-c2ccccc2)on1 [MMV676008],,> 20 µM,≥ 30 fold,0.4 ± 0.08 µM,0.4 ± 0.08 µM,74.9%,21 ± 0.6 µM,12 ± 0.4 µM,"EC50 ([1]; Table 3 footnote: 3D7, read-out: EC50 against P. falciparum (text)): > 25 µM; IC50 ([2]; read-out: PfIVT IC50 (text)): 0.04 µM"
O=C(Nc1ccc(C(F)(F)F)c(C(F)(F)F)c1)c1cc(Cl)ccc1O [MMV687807],,1.8 µM,≤ 5 fold,0.09 ± 0.007 µM,0.09 ± 0.007 µM,95.1%,25 ± 0.8 µM,0.5 ± 0.006 µM,
O=C(Nc1ccc(F)c(-c2nc3cc(-c4ccccc4)cnc3[nH]2)c1)N1CCCC1 [MMV688372],,,,,,62.9%,,,"EC50 ([3]; 3D7, 72 h, read-out: P. falciparum asexual-blood-stage EC50): 13.6 µM; EC50 ([3]; read-out: EC50 against P. falciparum (text)): 14 µM"
Cc1ccc(NC(=O)c2cc(Cl)ccc2O)cc1 [MMV1578897],,,,,,,,,"EC50 [1, 11]: 5 µM; PfIVT inhibition at 30 μM (%) ([2]; Pandemic Box): 93.4%"
Nc1nc(NC2Cc3ccc(F)cc3C2)nc(N2CCCCC2)n1 (stereo not drawn) [MMV1580839],,,,,0.8 ± 0.08 µM,,,,"EC50 [1, 11]: 5 µM; PfIVT IC50 (μM) [2]: submicromolar potency; IC50 ([2]; Pandemic Box hits, 8-point, weighted mean ± SD of two technical replicates, read-out: IC50 value (μM) PfIVT): 0.8 ± 0.08 µM; PfIVT inhibition at 30 μM (%) ([2]; Pandemic Box): 73.3%; IC50 ([5]; Pandemic Box hits): 8.3 ± 0.08 µM; IC50 ([4]; Pandemic Box hits, weighted mean ± SD of two technical replicates, read-out: IC50 value (μM) HsIVT): 7.6 ± 0.12 µM; IC50 ([4]; read-out: HsIVT IC50 (text)): 8 µM"
